Laboratory results reported in patent US5091539A, “Azolyl cycloalkanol derivatives and agricultural fungicides” (Shionogi & Co., Ltd., priority 1984, dated 1992).

Test system: Sphaerotheca fuliginea
Assay: Control test to powdery mildew of cucumber (foliar and soil treatment)
Type: in vivo
Conditions: for Foliar Treatment, Curative Effect / Foliar Treatment, Protective Effect / Soil Treatment, Protective Effect: index 0-10; for Protective Index, Foliar Treatment / Protective Index, Soil Treatment: 14 days
Method: (1) Seeds of cucumber (Cultivar: Matsukaze) were sown in a pot of 9 cm in diameter and the pots were kept in a green house until the plant was grown for 2-3 leaf stage. The first leaf was sprayed with, (i) 3 ml each of solutions containing the test compound at the prescribed concetrations and dried by the air (foliar treatment). Inoculation of spore suspension of Sphaerotheca fuliginea by spraying was practised 2 days before the treatment (curative effect) or 1 day after the treatment (protective effect). Alternatively, (ii) 5 ml of the solution was applied at the root of the seedlings (soil treatment). The pots were kept in a greenhouse for 2 days and inoculation was practised in the same manner noted above. (iii) After sprayed with 3 ml of a solution of the test compound at a concentration of 125 ppm and dried by the air, the treated pots were set in a greenhouse. Untreated pots were placed next to the treated pots. Those treated and untreated plants were inoculated with spore suspension. Protective effect of the test compounds by vapor was thus checked. The effect was examined 14 days after the inoculation of the spores.
0: Disease sign is observed on the whole leaf.
3: Disease sign is observed on the leaf in about 50%.
5: Disease sign is observed on the leaf in about 30%.
7: Disease sign is observed on the leaf in about 20%.
9: a little disease sign is observed.
(1) Test methods and evaluation are the same as those in Tests 2, 4 and 6.

Compound	Foliar Treatment, Curative Effect (second Table 4, 0.5 ppm)	Foliar Treatment, Protective Effect (second Table 4, 0.5 ppm)	Foliar Treatment, Curative Effect (second Table 4, 2.0 ppm)	Foliar Treatment, Protective Effect (second Table 4, 2.0 ppm)	Foliar Treatment, Curative Effect (second Table 4, 7.8 ppm)	Foliar Treatment, Protective Effect (second Table 4, 7.8 ppm)	Foliar Treatment, Curative Effect (second Table 4, 31.3 ppm)	Foliar Treatment, Protective Effect (second Table 4, 31.3 ppm)	Protective Index, Foliar Treatment (first Table 4, 125 ppm)	Protective Index, Soil Treatment (first Table 4, 125 ppm)	Soil Treatment, Protective Effect (second Table 4, 0.5 ppm)	Soil Treatment, Protective Effect (second Table 4, 2.0 ppm)	Soil Treatment, Protective Effect (second Table 4, 7.8 ppm)	Soil Treatment, Protective Effect (second Table 4, 31.3 ppm)	Protective Index, Soil Treatment (first Table 4, 500 ppm)
O[C@@]1(c2ccc(Cl)cc2)CCCCC[C@H]1n1ccnc1 (relative stereo) [Compound 27]	0	0	5 (Disease sign is observed on the leaf in about 30%.)	3 (Disease sign is observed on the leaf in about 50%.)	10	9	10	10							
O[C@@]1(c2ccc(F)cc2)CCCC[C@H]1n1ccnc1 (relative stereo) [Compound 29]	0	0	3 (Disease sign is observed on the leaf in about 50%.)	3 (Disease sign is observed on the leaf in about 50%.)	9	9	10	10							
O[C@@]1(Cc2ccc(Cl)cc2)CCCCC[C@H]1n1cncn1 (relative stereo) [Compound 5, cis-1-(4-chlorobenzyl)-2-(1,2,4-triazol-1-yl)cycloheptanol]									10	3 (Disease sign is observed on the leaf in about 50%.)					
O[C@@]1(c2ccc(Cl)c(Cl)c2)CCCC[C@H]1n1cncn1 (relative stereo) [Compound 33]	3 (Disease sign is observed on the leaf in about 50%.)	0	10	5 (Disease sign is observed on the leaf in about 30%.)	10	10	10	10			0	0	0	0	
O[C@@]1(c2cccs2)CCCC[C@H]1n1ccnc1 (relative stereo) [Compound 6, cis-1-(2-thienyl)-2-imidazolylcyclohexanol]									10	0					
Cc1ccc2nc3sc(=O)sc3nc2c1 [Chinomethionat, reference compound]									10						
CCCCc1c(C)nc(N(C)C)nc1O [Dimethirimol, reference compound]															5 (Disease sign is observed on the leaf in about 30%.)
O[C@@]1(c2cccc(Cl)c2)CCCC[C@H]1n1cncn1 (relative stereo) [Compound 31]	3 (Disease sign is observed on the leaf in about 50%.)	0	9	0	10	9	10	10							
